Active and inactive are the calls of the source. The calls are words filed in the database; no cut-off is given here.
Legend:
Homo sapiens [1] = species on record: Homo sapiens; assay: Inhibition of octadecyl sulfate-induced recombinant human tau 2N4R aggregation at 1 uM by electron microscopy
Homo sapiens [2] = species on record: Homo sapiens; assay: Inhibition of octadecyl sulfate-induced recombinant human tau 2N4R aggregation at 10 uM by electron microscopy

SMILES | inhibition (Homo sapiens [1]) | inhibition (Homo sapiens [2])
C1=C2\Sc3ccccc3N2CCCCCCCC[n+]2c(sc3ccccc32)/C=C/C=C2\Sc3ccccc3N2CCCCCCCC[n+]2c(sc3ccccc32)/C=C/1 |  | Active
C1=C2\Sc3ccccc3N2CCCCCC[n+]2c(sc3ccccc32)/C=C/C=C2\Sc3ccccc3N2CCCCCC[n+]2c(sc3ccccc32)/C=C/1 |  | Active
C1=C2\Sc3ccccc3N2CCCCCCC[n+]2c(sc3ccccc32)/C=C/C=C2\Sc3ccccc3N2CCCCCCC[n+]2c(sc3ccccc32)/C=C/1 |  | Active

The remaining lines, values ahead:

inhibition (Homo sapiens [1]) | inhibition (Homo sapiens [2]) | SMILES
inactive | Active | C1=C2\Sc3ccccc3N2CCC[n+]2c(sc3ccccc32)/C=C/C=C2\Sc3ccccc3N2CCC[n+]2c(sc3ccccc32)/C=C/1
 | Active | C1=C2\Sc3ccccc3N2CCCCC[n+]2c(sc3ccccc32)/C=C/C=C2\Sc3ccccc3N2CCCCC[n+]2c(sc3ccccc32)/C=C/1
Active | Active | C1=C2\Sc3ccccc3N2CCCC[n+]2c(sc3ccccc32)/C=C/C=C2\Sc3ccccc3N2CCCC[n+]2c(sc3ccccc32)/C=C/1
